# From paper PMC6315173, “Characterization of the Apelin/Elabela Receptors (APLNR) in Chickens, Turtles, and Zebrafish: Identification of a Novel Apelin-Specific Receptor in Teleosts” (Frontiers in Endocrinology, 2018)
# Read-outs that look alike come from different tables or passages of the source. Positions of bridges follow the written chain, without caps; N, C: chain ends. Residues, ends and D or L forms follow the SMILES beside them. No end group written: not given here.
# Experiments:
# [1] = system: zebrafish APLNR3a (zfAPLNR3a); assay: pGL3-CRE-luciferase reporter assay, HEK293 cells expressing zebrafish APLNR3a; assay type: cell-based, zebrafish (Danio rerio); settings: HEK293 cells transiently expressing zfAPLNR3a; inhibition of forskolin (5 μM)-stimulated pGL3-CRE-luciferase activity; 6 h; mean ± S.E. of 3 independent experiments; N = EC50 cannot be evaluated
# Protocol: (§1) In brief, HEK293 cells were cultured on a six-well plate and grown for 24 h before transfection. The cells were then transfected with a mixture containing 700 ng pGL3-CRE-Luciferase reporter construct (or pGL4-SRE-Luciferase reporter construct), 200 ng of receptor expression plasmid [or empty pcDNA3.1(+) vector as a negative control], and 2 μl jetPRIME (Polyplus Transfection, Illkirch, France) in 200 μl buffer. Twenty-four hour later, HEK293 cells were sub-cultured into a 96-well plate at 37°C for an additional 24 h before treatment. After removal of medium from the 96-well plate, the cells were treated with 100 μl peptide-containing medium (or peptide-free medium) for 6 h in the presence or absence of forskolin (5 μM). Finally, HEK293 cells were lysed with 1 × passive lysis buffer for luciferase assay (Promega, Madison, WI, USA) and the luciferase activity of the cell lysate was measured by a Multimode microplate Reader (TriStar LB 941, EG&G Berthold, Germany) according to the manufacturer's instruction.
# (§2) The luciferase activity in each treatment group was expressed as the relative fold changes as compared with their respective control groups. The data were analyzed by non-linear regression followed by one-way ANOVA using GraphPad Prism 5 (GraphPad, San Diego, CA, USA). To validate the results, all experiments were repeated at least twice.
# [2] = target: T1, zebrafish APLNR2a (zfAPLNR2a) (Danio rerio, UniProt Q7SZP9); assay: pGL3-CRE-luciferase reporter assay, HEK293 cells expressing zebrafish APLNR2a; assay type: cell-based
# T1 construct: the open reading frame (ORF) of each APLNR was amplified from the animal; expressed in transfected cells; host or cells: HEK293
# T1 sequence (Q7SZP9 1-362): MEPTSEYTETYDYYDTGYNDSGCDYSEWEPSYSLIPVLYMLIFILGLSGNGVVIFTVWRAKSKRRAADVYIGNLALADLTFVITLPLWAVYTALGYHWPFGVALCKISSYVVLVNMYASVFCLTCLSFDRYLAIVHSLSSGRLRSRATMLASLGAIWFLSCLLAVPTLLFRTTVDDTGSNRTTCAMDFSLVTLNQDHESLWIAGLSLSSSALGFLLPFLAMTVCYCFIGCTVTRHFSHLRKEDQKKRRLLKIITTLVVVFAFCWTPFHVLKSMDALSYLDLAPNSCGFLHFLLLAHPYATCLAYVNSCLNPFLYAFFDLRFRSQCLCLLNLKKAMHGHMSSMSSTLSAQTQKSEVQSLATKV
# Protocol: as §1, §2
# [3] = target: T2, zebrafish APLNR2b (zfAPLNR2b) (Danio rerio, UniProt A0T2N3); assay: pGL3-CRE-luciferase reporter assay, HEK293 cells expressing zebrafish APLNR2b; assay type: cell-based
# T2 construct: the open reading frame (ORF) of each APLNR was amplified from the animal; expressed in transfected cells; host or cells: HEK293
# T2 sequence (A0T2N3 1-359): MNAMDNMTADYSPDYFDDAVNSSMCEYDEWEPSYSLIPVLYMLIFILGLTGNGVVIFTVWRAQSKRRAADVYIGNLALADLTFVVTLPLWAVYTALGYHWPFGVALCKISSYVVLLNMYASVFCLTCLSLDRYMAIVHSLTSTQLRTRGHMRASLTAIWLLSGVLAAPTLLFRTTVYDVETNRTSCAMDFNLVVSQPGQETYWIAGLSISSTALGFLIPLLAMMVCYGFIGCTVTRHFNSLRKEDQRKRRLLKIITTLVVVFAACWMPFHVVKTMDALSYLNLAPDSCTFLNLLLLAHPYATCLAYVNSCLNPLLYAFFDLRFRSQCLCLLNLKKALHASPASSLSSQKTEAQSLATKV
# Protocol: as §1, §2
# [4] = system: tilapia APLNR3b (tiAPLNR3b); assay: pGL3-CRE-luciferase reporter assay, HEK293 cells expressing tilapia APLNR3b; assay type: cell-based, Nile tilapia (Oreochromis niloticus); settings: HEK293 cells transiently expressing tiAPLNR3b; inhibition of forskolin (5 μM)-stimulated pGL3-CRE-luciferase activity; 6 h; mean ± S.E. of 3 independent experiments; N = EC50 cannot be evaluated
# Protocol: as §1, §2
# human APLNR (hAPLNR1) = target: T3, human APLNR (hAPLNR1) (Homo sapiens, UniProt P35414); assay: pGL3-CRE-luciferase reporter assay, HEK293 cells expressing human APLNR; assay type: cell-based; settings: SEM; read-out: EC50 (nM) hAPLNR
# T3 construct: human APLNR ORF was also amplified by PCR and cloned into pcDNA3.1 (+) expression vector; expressed in transfected cells; host or cells: HEK293
# T3 sequence (P35414 1-380): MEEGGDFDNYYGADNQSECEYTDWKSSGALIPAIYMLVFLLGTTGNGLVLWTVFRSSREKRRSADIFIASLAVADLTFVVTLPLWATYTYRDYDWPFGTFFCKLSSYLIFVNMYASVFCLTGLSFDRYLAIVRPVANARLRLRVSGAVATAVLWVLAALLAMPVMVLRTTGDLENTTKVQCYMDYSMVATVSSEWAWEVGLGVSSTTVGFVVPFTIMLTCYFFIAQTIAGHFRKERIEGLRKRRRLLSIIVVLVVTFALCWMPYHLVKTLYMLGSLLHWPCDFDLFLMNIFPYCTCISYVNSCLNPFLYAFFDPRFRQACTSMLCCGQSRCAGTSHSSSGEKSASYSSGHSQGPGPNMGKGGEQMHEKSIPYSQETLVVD
# Protocol: In brief, HEK293 cells were cultured on a six-well plate and grown for 24 h before transfection. The cells were then transfected with a mixture containing 700 ng pGL3-CRE-Luciferase reporter construct (or pGL4-SRE-Luciferase reporter construct), 200 ng of receptor expression plasmid [or empty pcDNA3.1(+) vector as a negative control], and 2 μl jetPRIME (Polyplus Transfection, Illkirch, France) in 200 μl buffer. Twenty-four hour later, HEK293 cells were sub-cultured into a 96-well plate at 37°C for an additional 24 h before treatment. After removal of medium from the 96-well plate, the cells were treated with 100 μl peptide-containing medium (or peptide-free medium) for 6 h in the presence or absence of forskolin (5 μM). […] The luciferase activity in each treatment group was expressed as the relative fold changes as compared with their respective control groups. The data were analyzed by non-linear regression followed by one-way ANOVA using GraphPad Prism 5 (GraphPad, San Diego, CA, USA). To validate the results, all experiments were repeated at least twice.
Compound,EC50 ([2]; SEM) [nM],EC50 ([3]; SEM) [nM],EC50 (human APLNR (hAPLNR1)) [nM],EC50 [2] [nM],EC50 [3] [nM],EC50 [1] [nM],EC50 [4] [nM]
CC(C)C[C@H](NC(=O)[C@@H]1CCCN1C(=O)[C@H](CC(C)C)NC(=O)[C@H](CS)NC(=O)[C@H](CCCNC(=N)N)NC(=O)[C@H](CCCCN)NC(=O)[C@H](CCCCN)NC(=O)[C@@H]1CCCN1C(=O)[C@H](CS)NC(=O)[C@H](CC(N)=O)NC(=O)[C@H](Cc1c[nH]cn1)NC(=O)[C@H](CCCNC(=N)N)NC(=O)[C@H](CCCNC(=N)N)NC(=O)[C@H](Cc1ccc(O)cc1)NC(=O)[C@@H](N)CCCCN)C(=O)N[C@@H](Cc1c[nH]cn1)C(=O)N[C@@H](CO)C(=O)N[C@@H](CCCNC(=N)N)C(=O)N[C@H](C(=O)N1CCC[C@H]1C(=O)N[C@@H](Cc1ccccc1)C(=O)N1CCC[C@H]1C(=O)O)C(C)C [zfELA-22] (H-KYRRHNCPKKRCLPLHSRVPFP-OH; N-terminus and C-terminus assumed),1.43 ± 0.57,1.78 ± 1.17,,,,> 100,> 100
LVRPRGARRGNVRRPGGWRRLRRPRPRLSHKGPMPF [cApelin-36],2.96 ± 1.26,0.9 ± 0.33,0.16 ± 0.06,,,,
CSCC[C@H](NC(=O)[C@@H]1CCCN1C(=O)CNC(=O)[C@H](CCCCN)NC(=O)[C@H](Cc1c[nH]cn1)NC(=O)[C@H](CO)NC(=O)[C@H](CC(C)C)NC(=O)[C@H](CCCNC(=N)N)NC(=O)[C@@H]1CCCN1C(=O)[C@H](CCCNC(=N)N)NC(=O)[C@@H]1CCCN1)C(=O)N1CCC[C@H]1C(=O)N[C@@H](Cc1ccccc1)C(=O)O [cApelin-13],2.82 ± 1.18,12.7 ± 5.21,0.55 ± 0.21,,,,

# Continued, in another order:
EC50 ([2]; SEM) [nM],EC50 ([3]; SEM) [nM],EC50 (human APLNR (hAPLNR1)) [nM],EC50 [2] [nM],EC50 [3] [nM],Compound,EC50 [1] [nM],EC50 [4] [nM]
,,,> 100,> 100,CSCC[C@H](NC(=O)[C@@H](N)CS)C(=O)N1CCC[C@H]1C(=O)N[C@@H](CC(C)C)C(=O)N[C@@H](Cc1cnc[nH]1)C(=O)N[C@@H](CO)C(=O)N[C@@H](CCCNC(=N)N)C(=O)N[C@H](C(=O)N1CCC[C@H]1C(=O)N[C@@H](Cc1ccccc1)C(=O)N1CCC[C@H]1C(=O)O)C(C)C [cELA-11],,
1.68 ± 0.58,1.02 ± 0.23,0.28 ± 0.05,,,CSCC[C@H](NC(=O)[C@H](CS)NC(=O)[C@H](CCCNC(=N)N)NC(=O)[C@H](CCCNC(=N)N)NC(=O)[C@H](Cc1c[nH]cn1)NC(=O)[C@H](CO)NC(=O)[C@H](CS)NC(=O)[C@H](CC(N)=O)NC(=O)[C@H](Cc1c[nH]cn1)NC(=O)[C@H](CCCNC(=N)N)NC(=O)[C@H](Cc1c[nH]cn1)NC(=O)[C@H](CC(C)C)NC(=O)[C@H](CCCCN)NC(=O)[C@H](CCCNC(=N)N)NC(=O)[C@H](CCCNC(=N)N)NC(=O)[C@H](CC(C)C)NC(=O)[C@H](C)NC(=O)[C@H](CC(C)C)NC(=O)[C@H](CC(N)=O)NC(=O)[C@H](C)NC(=O)[C@@H]1CCCN1C(=O)[C@H](CCCNC(=N)N)NC(=O)[C@@H](N)CCC(N)=O)C(=O)N1CCC[C@H]1C(=O)N[C@@H](CC(C)C)C(=O)N[C@@H](Cc1c[nH]cn1)C(=O)N[C@@H](CO)C(=O)N[C@@H](CCCNC(=N)N)C(=O)N[C@H](C(=O)N1CCC[C@H]1C(=O)N[C@@H](Cc1ccccc1)C(=O)N1CCC[C@H]1C(=O)O)C(C)C [cELA-32b] (H-QRPANLALRRKLHRHNCSHRRCMPLHSRVPFP-OH),,
1.81 ± 0.74,2.55 ± 0.11,0.26 ± 0.07,,,CSCC[C@H](NC(=O)[C@@H]1CSSC[C@H](NC(=O)[C@H](CC(N)=O)NC(=O)[C@H](Cc2c[nH]cn2)NC(=O)[C@H](CCCNC(=N)N)NC(=O)[C@H](Cc2c[nH]cn2)NC(=O)[C@H](CC(C)C)NC(=O)[C@H](CCCCN)NC(=O)[C@H](CCCNC(=N)N)NC(=O)[C@H](CCCNC(=N)N)NC(=O)[C@H](CC(C)C)NC(=O)[C@H](C)NC(=O)[C@H](CC(C)C)NC(=O)[C@H](CC(N)=O)NC(=O)[C@H](C)NC(=O)[C@@H]2CCCN2C(=O)[C@H](CCCNC(=N)N)NC(=O)[C@@H](N)CCC(N)=O)C(=O)N[C@@H](CO)C(=O)N[C@@H](Cc2c[nH]cn2)C(=O)N[C@@H](CCCNC(=N)N)C(=O)N[C@@H](CCCNC(=N)N)C(=O)N1)C(=O)N1CCC[C@H]1C(=O)N[C@@H](CC(C)C)C(=O)N[C@@H](Cc1c[nH]cn1)C(=O)N[C@@H](CO)C(=O)N[C@@H](CCCNC(=N)N)C(=O)N[C@H](C(=O)N1CCC[C@H]1C(=O)N[C@@H](Cc1ccccc1)C(=O)N1CCC[C@H]1C(=O)O)C(C)C [cELA-32a] (H-QRPANLALRRKLHRHNCSHRRCMPLHSRVPFP-OH; disulfide 17-22),,
